biological target: recombinant human SYK (GST-hSYK fusion protein) (Homo sapiens, UniProt P43405); experiment: biochemical; details: rhSYK Activity (IC50), recombinant human GST-SYK 5 pM, ATP 25 μM, biotinylated substrate peptide 250 nM, HTRF, 10-dose titration
Excerpt: Homogeneous Time-Resolved Fluorescence (HTRF) Assay for the Recombinant Human SYK Enzyme:

| IC50 | SMILES |
| --- | --- |
| < 100 nM | Cc1cc(Nc2nccc(OC3CCOC3)n2)cc(-c2cnc(C3(O)CCC3)s2)c1 (stereo not shown) [Example 94A-29] |
| < 100 nM | Cc1cc(Nc2nccc(OC3CCC3)n2)cc(-c2cnc(C3(O)CCC3)s2)c1 [Example 94A-30] |
| < 100 nM | Cc1cc(Nc2nccc(OC3CCCC3)n2)cc(-c2cnc(C3(O)CCC3)s2)c1 [Example 94A-31] |
| 100 to 1000 nM | Cc1cc(Nc2nccc(OC3CCCCC3)n2)cc(-c2cnc(C3(O)CCC3)s2)c1 [Example 94A-32] |
| < 100 nM | Cc1cc(Nc2nccc(OC3CCNCC3)n2)cc(-c2cnc(C3(O)CCC3)s2)c1 [Example 94A-33] |
| < 100 nM | Cc1cc(Nc2nccc(OCc3ccccc3)n2)cc(-c2cnc(C(C)(O)C(F)(F)F)s2)c1 (stereo not shown) [Example 94B-1, 2-[5-(3-{[4-(benzyloxy)pyrimidin-2-yl]-amino}-5-methylphenyl)-1,3-thiazol-2-yl]-1,1,1-trifluoropropan-2-ol] |
| < 100 nM | Cc1cc(Nc2nccc(OC3CCC(C)(O)CC3)n2)cc(-c2cnc(C(C)(O)C(F)(F)F)s2)c1 (stereo not shown) [Example 94B-2] |
| 100 to 1000 nM | Cc1cc(Nc2nccc(OC3CCC(OCc4ccccc4)CC3)n2)cc(-c2cnc(C(C)(O)C(F)(F)F)s2)c1 (stereo not shown) [Example 94B-3, 2-(5-{3-[(4-{[4-(benzyloxy)cyclohexyl]oxy}pyrimidin-2-yl)amino]-5-methylphenyl}-1,3-thiazol-2-yl)-1,1,1-trifluoropropan-2-ol] |
| < 100 nM | Cc1cc(Nc2nccc(OC3CCNCC3F)n2)cc(-c2cnc(C(C)(O)C(F)(F)F)s2)c1 (stereo not shown) [Example 94B-4] |
| < 100 nM | Cc1cc(Nc2nccc(OC3CCNCC3)n2)cc(-c2cnc(C(C)(O)C(F)(F)F)s2)c1 (stereo not shown) [Example 94B-6] |
| < 100 nM | Cc1cc(Nc2nccc(O[C@H]3CCNC3)n2)cc(-c2cnc(C(C)(O)C(F)(F)F)s2)c1 (stereo partly shown) [Example 94B-9] |
| < 100 nM | CC(O)c1ncc(-c2cccc(Nc3nccc(OC4CCNCC4)n3)c2)s1 (stereo not shown) [Example 94B-10] |
| < 100 nM | Cc1cc(Nc2nccc(N3CCCC(=O)NC3)n2)cc(-c2cnc(C3(O)CCC3)s2)c1 [Example 94C-1] |
| 100 to 1000 nM | Cc1cc(Nc2nccc(OC(C)(C)C(=O)O)n2)cc(-c2cnc(C3(O)CCC3)s2)c1 [Example 95, 2-{[2-({3-[2-(1-hydroxycyclobutyl)-1,3-thiazol-5-yl]-5-methylphenyl}amino)pyrimidin-4-yl]oxy}-2-methylpropanoic acid] |
| < 100 nM | Cc1cc(Nc2nccc(OC3CCC(C(=O)O)CC3)n2)cc(-c2cnc(C3(O)CCC3)s2)c1 (stereo not shown) [Example 97, 4-{[2-({3-[2-(1-hydroxycyclobutyl)-1,3-thiazol-5-yl]-5-methylphenyl}amino)pyrimidin-4-yl]oxy}cyclohexanecarboxylic acid] |
| < 100 nM | Cc1cc(Nc2nccc(Cl)n2)cc(-c2cnc(C(C)(O)C(F)(F)F)s2)c1 (stereo not shown) [Example 98, 2-(5-{3-[(4-chloropyrimidin-2-yl)amino]-5-methylphenyl}-1,3-thiazol-2-yl)-1,1,1-trifluoropropan-2-ol] |
| < 100 nM | COc1ccnc(Nc2cc(C)cc(-c3cnc(C4(O)CCC4)s3)c2)n1 [Example 100A-1] |
| < 100 nM | Cc1cc(Nc2nccc(C)n2)cc(-c2cnc(C3(O)CCC3)s2)c1 [Example 100A-2] |
| 100 to 1000 nM | Cc1cc(Nc2ncccn2)cc(-c2cnc(C3(O)CCC3)s2)c1 [Example 100A-3] |

| IC50 | SMILES |
| --- | --- |
| 100 to 1000 nM | Cc1cc(Nc2ncc(F)cn2)cc(-c2cnc(C3(O)CCC3)s2)c1 [Example 100A-4] |
| 100 to 1000 nM | Cc1cc(Nc2ncc(Cl)cn2)cc(-c2cnc(C3(O)CCC3)s2)c1 [Example 100A-5] |
| 100 to 1000 nM | CCc1cnc(Nc2cc(C)cc(-c3cnc(C4(O)CCC4)s3)c2)nc1 [Example 100A-6] |
| < 100 nM | Cc1cc(Nc2nccc(C#N)n2)cc(-c2cnc(C3(O)CCC3)s2)c1 [Example 100A-7] |
| 100 to 1000 nM | Cc1cc(Nc2nc(C)cc(C)n2)cc(-c2cnc(C3(O)CCC(C(=O)O)C(C)(C)C3)s2)c1 (stereo not shown) [Example 100A-9] |
| 100 to 1000 nM | COc1nc(Nc2cc(C)cc(-c3cnc(C4(O)CCC(O)CC4)s3)c2)ncc1C(F)(F)F (stereo not shown) [Example 100A-11] |
| < 100 nM | COc1nc(Nc2cc(C)cc(-c3cnc(C4(O)CCC(C(=O)O)C(C)(C)C4)s3)c2)ncc1C (stereo not shown) [Example 100A-13] |
| < 100 nM | Cc1cc(Nc2ncc(C)c(N(C)C)n2)cc(-c2cnc(C3(O)CCC(C(=O)O)C(C)(C)C3)s2)c1 (stereo not shown) [Example 100A-16] |
| < 100 nM | Cc1cc(Nc2nccc(C(C)(C)O)n2)cc(-c2cnc(C3(O)CCC(C(=O)O)C(C)(C)C3)s2)c1 (stereo not shown) [Example 100A-17] |
| < 100 nM | Cc1cc(Nc2nccc(C(F)C3CC3)n2)cc(-c2cnc(C3(O)CCC(C(=O)O)C(C)(C)C3)s2)c1 (stereo not shown) [Example 100A-20] |
| < 100 nM | Cc1cc(Nc2nccc(C=CC(C)(C)O)n2)cc(-c2cnc(C3(O)CCC(C(=O)O)C(C)(C)C3)s2)c1 (stereo not shown) [Example 100A-23] |
| < 100 nM | Cc1cc(Nc2nccc(C(C)(O)C3CC3)n2)cc(-c2cnc(C3(O)CCC(C(=O)O)C(C)(C)C3)s2)c1 (stereo not shown) [Example 100A-24] |
| 1000 to 10000 nM | COC(=O)C1CCC(O)(c2ncc(-c3cc(C)cc(Nc4ncc(C(F)(F)F)c(OC)n4)c3)s2)CC1(C)C (stereo not shown) [Example 100A-27] |
| 100 to 1000 nM | COC(=O)[C@H]1CC[C@](O)(c2ncc(-c3cc(C)cc(Nc4ncc5c(n4)CCC5)c3)s2)CC1(C)C [Example 100A-29] |
| < 100 nM | COc1ccnc(Nc2cc(C)cc(-c3cnc(C(C)(O)C(F)(F)F)s3)c2)n1 (stereo not shown) [Example 100B-1] |
| < 100 nM | Cc1cc(Nc2ncc(F)cn2)cc(-c2cnc(C(C)(O)C(F)(F)F)s2)c1 (stereo not shown) [Example 100B-2] |
| 100 to 1000 nM | COc1cnc(Nc2cc(C)cc(-c3cnc(C(C)(O)C(F)(F)F)s3)c2)nc1 (stereo not shown) [Example 100B-3] |
| 1000 to 10000 nM | Cc1cc(Nc2ncc(C3CC3)cn2)cc(-c2cnc(C(C)(O)C(F)(F)F)s2)c1 (stereo not shown) [Example 100B-4] |
| < 100 nM | Cc1cnc(Nc2cc(C)cc(-c3cnc(C(C)(O)C(F)(F)F)s3)c2)nc1 (stereo not shown) [Example 100] |

| IC50 | SMILES |
| --- | --- |
| 100 to 1000 nM | Cc1cc(Nc2ncccn2)cc(-c2cnc(C(C)(O)C(F)(F)F)s2)c1 (stereo not shown) [Example 101, 1,1,1-trifluoro-2-{5-[3-methyl-5-(pyrimidin-2-ylamino)phenyl]-1,3-thiazol-2-yl}propan-2-ol] |
| < 100 nM | CCOC(=O)C1CCC(O)(c2ncc(-c3cc(C)cc(Nc4nccc(C(C)(C)C)n4)c3)s2)CC1C (stereo not shown) [Example 101-1] |
| < 100 nM | COC(=O)[C@H]1CC[C@](O)(c2ncc(-c3cc(C)cc(Nc4nccc(C(C)C)n4)c3)s2)CC1(C)C [Example 101-2] |
| < 100 nM | COC(=O)[C@H]1CC[C@](O)(c2ncc(-c3cc(C)cc(Nc4nccc(C(C)(C)C)n4)c3)s2)CC1(C)C [Example 101-3] |
| < 100 nM | COC(=O)[C@H]1CC[C@](O)(c2ncc(-c3cc(C)cc(Nc4nccc(OC(C)C)n4)c3)s2)CC1(C)C [Example 101-4] |
| < 100 nM | C=Cc1ccnc(Nc2cc(C)cc(-c3cnc([C@@]4(O)CC[C@H](C(=O)OC)C(C)(C)C4)s3)c2)n1 [Example 101-5] |
| < 100 nM | COC(=O)[C@H]1CC[C@](O)(c2ncc(-c3cc(C)cc(Nc4nccc(C5CCC5)n4)c3)s2)CC1(C)C [Example 101-6] |
| < 100 nM | COC(=O)[C@H]1CC[C@](O)(c2ncc(-c3cc(C)cc(Nc4nccc(C(N)=O)n4)c3)s2)CC1(C)C [Example 101-7] |
| < 100 nM | COc1nc(Nc2cc(C)cc(-c3cnc(C4(O)CCC4)s3)c2)ncc1Cl [Example 102, 1-(5-{3-[(5-chloro-4-methoxypyrimidin-2-yl)amino]-5-methylphenyl}-1,3-thiazol-2-yl)-cyclobutanol] |
| < 100 nM | Cc1cc(Nc2ncc(Cl)c(C)n2)cc(-c2cnc(C3(O)CCC3)s2)c1 [Example 103, 1-(5-{3-[(5-chloro-4-methylpyrimidin-2-yl)amino]-5-methylphenyl}-1,3-thiazol-2-yl)cyclobutanol] |
| < 100 nM | C=Cc1ccnc(Nc2cc(C)cc(-c3cnc(C4(O)CCC4)s3)c2)n1 [Example 104, 1-(5-{3-[(4-ethenylpyrimidin-2-yl)amino]-5-methylphenyl}-1,3-thiazol-2-yl)cyclobutanol] |
| 100 to 1000 nM | COC/C=C/c1ccnc(Nc2cc(C)cc(-c3cnc(C4(O)CCC(C(=O)OC(C)(C)C)CC4)s3)c2)n1 (stereo not shown) [Example 104-1] |
| < 100 nM | COC/C=C/c1ccnc(Nc2cc(C)cc(-c3cnc(C4(O)CCC(C(=O)O)CC4)s3)c2)n1 (stereo not shown) [Example 104-2] |
| < 100 nM | Cc1cc(Nc2nccc(C(O)CO)n2)cc(-c2cnc(C3(O)CCC3)s2)c1 (stereo not shown) [Example 105, 1-[2-({3-[2-(1-hydroxycyclobutyl)-1,3-thiazol-5-yl]-5-methylphenyl}amino)pyrimidin-4-yl]ethane-1,2-diol] |
| < 100 nM | CC(=O)c1ccnc(Nc2cc(C)cc(-c3cnc(C(C)(O)C(F)(F)F)s3)c2)n1 (stereo not shown) [Example 106, 1-[2-({3-methyl-5-[2-(1,1,1-trifluoro-2-hydroxypropan-2-yl)-1,3-thiazol-5-yl]phenyl}amino)pyrimidin-4-yl]ethanone] |
| < 100 nM | Cc1cc(Nc2nccc(C3CCC3)n2)cc(-c2cnc(C3(O)CCC3)s2)c1 [Example 107, 1-(5-{3-[(4-cyclobutylpyrimidin-2-yl)amino]-5-methylphenyl}-1,3-thiazol-2-yl)cyclobutanol] |
| < 100 nM | Cc1cc(Nc2nccc(C3CCCC3)n2)cc(-c2cnc(C3(O)CCC3)s2)c1 [Example 107-1] |
| < 100 nM | Cc1cc(Nc2nccc(C3CCCCC3)n2)cc(-c2cnc(C3(O)CCC3)s2)c1 [Example 107-2] |

same assay, conditions: rhSYK Activity, Table 108A

| IC50 | SMILES |
| --- | --- |
| < 100 nM | Cc1cc(Nc2nccc(OCc3nccn3C)n2)cc(-c2cnc(C3(O)CCC3)s2)c1 [Example 108A-1] |
| < 100 nM | Cc1cc(Nc2nccc(OCc3c[nH]cn3)n2)cc(-c2cnc(C3(O)CCC3)s2)c1 [Example 108A-2] |
| < 100 nM | Cc1cc(Nc2nccc(OCCN3CCOCC3=O)n2)cc(-c2cnc(C3(O)CCC3)s2)c1 [Example 108A-3] |
| < 100 nM | Cc1cc(Nc2nccc(OCC3CCCOC3)n2)cc(-c2cnc(C3(O)CCC3)s2)c1 (stereo not shown) [Example 108A-4] |
| < 100 nM | Cc1cc(Nc2nccc(OC(CN)c3ccncn3)n2)cc(-c2cnc(C3(O)CCC3)s2)c1 (stereo not shown) [Example 108A-6] |
